The target in experiment [1] is T1, lipoprotein lipase (LPL) (Mus musculus, UniProt P11152).
T1 construct: endogenous in cells; host or cells: differentiated 3T3-L1 cells (mouse); heparin-released supernatant
T1 sequence (P11152 28-474): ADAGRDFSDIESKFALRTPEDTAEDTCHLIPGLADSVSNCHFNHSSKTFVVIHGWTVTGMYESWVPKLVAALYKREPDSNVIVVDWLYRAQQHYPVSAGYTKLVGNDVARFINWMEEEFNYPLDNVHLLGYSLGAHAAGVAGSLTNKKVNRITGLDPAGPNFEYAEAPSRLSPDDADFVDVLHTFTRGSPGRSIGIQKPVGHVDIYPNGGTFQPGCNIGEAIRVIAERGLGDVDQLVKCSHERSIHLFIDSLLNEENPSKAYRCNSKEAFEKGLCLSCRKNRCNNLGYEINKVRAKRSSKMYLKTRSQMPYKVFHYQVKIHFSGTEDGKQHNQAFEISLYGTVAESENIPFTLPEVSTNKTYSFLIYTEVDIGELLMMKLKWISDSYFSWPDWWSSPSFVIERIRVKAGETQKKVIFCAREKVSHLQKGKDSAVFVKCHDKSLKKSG
Nature of the experiment: Inhibition of LPL (lipogenesis assay), MUF oleate hydrolysis. The experiment is classed as biochemical. Particulars: LPL obtained from differentiated 3T3-L1 cells; mean values of at least 2 independent tests. The text has this: Lipogenesis is perceived as the storage of triglycerides in adipocytes. The inhibition of this storage can take place by means of the inhibition of the activity of extracellular lipoprotein lipase (LPL) in that the hydrolysis of extracellular triglycerides and therefore the absorption of free fatty acids by adipocytes are reduced. As a preliminary test, the inhibition of pancreatic lipase (PL) is investigated.
The results of the inhibition of the PL are used as a preliminary test and are confirmed on LPL. To obtain LPL, 3T3-L1 cells (mouse embryonic fibroblast-like adipocyte cell line) are seeded in a 6-well plate with collagen I-coating in a concentration of 3×10^5 cells/well. The cultivation and differentiation of the cells takes place analogously to the details in Example 2 (adipogenesis assay). During the differentiation LPL is increasingly expressed. The LPL is present in a membrane-bound state and is released by one hour incubation with heparin solution at 2-8° C. to the supernatant of the cells.
The LPL thus obtained, in the presence of test substances in different use concentrations, has methylumbelliferyl oleate (MUF oleate) added as the substrate. Fluorescent methylumbelliferyl (MUF) is produced by hydrolysis of the MUF oleate by LPL and is quantified. The inhibition of the hydrolysis of the MUF oleate is a measure of the inhibition of the activity of the LPL and therefore the lipogenesis.
[formula] wherein MUF test substance=MUF concentration of the wells with test substance and with LPL MUF control=MUF concentration of the wells without test substance, but with LPL MUF control without LPL=MUF concentration of the wells without test substance and without LPL
The IC50 is calculated from the inhibition of the LPL [%] in a series of dilutions of tested samples. This is the concentration at which the activity of the LPL and therefore the lipogenesis is 50% inhibited.

The subject of experiment [2] is 3T3-L1 cells. Nature of the experiment: Adipogenesis assay (in vitro), Nile Red lipid staining. Format: cell-based. Particulars: Mus musculus, mean values of at least 2 independent tests, read-out: Adipogenesis inhibition IC50. On the procedure:
3T3-L1 cells (mouse embryonic fibroblast-like adipocyte cell line) are seeded in a 48-well plate with collagen I-coating in a concentration of 3×10^4 cells/well. After 72 h cultivation at 37° C. and 5% CO2 in DMEM (Dulbecco's Modified Eagle Medium), enriched with 10% calf serum, various concentrations of the test substances in DMEM, enriched with 10% foetal calf serum and to which are added 1 μg/ml insulin, 0.25 μM dexamethasone and 0.5 mM IBMX (3-isobutyl-1-methylxanthine), are added and incubated for a further 48 h. A media change takes place, in that DMEM, enriched with 10% foetal calf serum and with 1 μg/ml insulin added, are applied. After renewed cultivation for 48 h, a further media change takes place, in which DMEM, enriched with 10% foetal calf serum, is applied.
After a further incubation for 72 h, the intracellularly stored lipids are quantified as a measure for the differentiation of the cells by measuring the fluorescence after staining of the lipids with the fluorescent dye Nile Red.
The inhibition of the adipogenesis in the presence of the test substances is calculated according to the following equation:
[formula] wherein RFU test substance=relative fluorescent units of the wells with test substance and with cells RFU control=relative fluorescent units of the wells without test substance, but with cells RFU control without cells=relative fluorescent units of the wells without test substance and without cells The IC50 is calculated from the adipogenesis inhibition [%] in a series of dilutions of tested samples. This is the concentration at which the adipogenesis is 50% inhibited.

Experiment [3] has as its system 3T3-L1 cells. Nature of the experiment: Lipolysis assay, in vitro on 3T3-L1 cells, free glycerol release. The experiment is classed as cell-based. The settings on record: Mus musculus; differentiated 3T3-L1 cells, about 20 hours of incubation; mean values from at least 2 independent tests; read-out: Stimulation of lipolysis EC50. The protocol: 3T3-L1 cells (mouse embryonic fibroblast-like adipocyte cell line) are seeded in a 48-well plate with collagen I-coating in a concentration of 3×10^4 cells/well. The cultivation and differentiation of the cells takes place analogously to the details in Example 2 (adipogenesis assay).
Various concentrations of the test substances are applied to the cells in DMEM, with bovine serum albumen added. After about 20 hours of incubation, the quantification of free glycerol in the supernatant of the cells takes place, which is released by the cells after hydrolysis of triglycerides in the cells and is a measure of the lipolysis of the cells. The quantification of the free glycerol is carried out based on an enzymatic method with a free glycerol reagent.
The stimulation of the lipolysis in the presence of test substances is calculated according to the following equation:
[formula] wherein A test substance=absorption of the wells with test substance and with cells A test substance without cells=absorption of the wells with test substance without cells (absorption control) A control=absorption of the wells without test substance, but with cells A control without cells=absorption of the wells without test substance and without cells
The EC50 is calculated from the lipolysis stimulation [%] in a series of dilutions of tested samples. This is the concentration at which the lipolysis is 50% stimulated.

The record followed here is patent US9012497B2, “Cyclohexyl carbamate compounds as active anti-cellulite ingredients” (Symrise AG, priority 2010, dated 2015).

Broadly, the IC50 is the point on the concentration scale where inhibition reaches its midpoint. Broadly, the EC50 is the concentration needed to bring the measured effect to its halfway point. `CCCCNC(=O)OC1C(C)CCC(C)C1C` (stereo not drawn) [BIO1617, Butyl-carbamic acid 2,3,6-trimethyl-cyclohexyl ester]: the IC50 stood at 610 µM in experiment [1] and 79 µM in experiment [2]. In addition, the concentration giving a half-maximal response (EC50) in experiment [3] came to 980 µM.

On to `CCCCNC(=O)OC1CCCCC1C(C)C` (stereo not drawn) [BIO1841, Butyl-carbamic acid 2-isopropyl-cyclohexyl ester], for which the 50% inhibitory concentration (IC50) in experiment [1] worked out at 1200 µM; in experiment [2] it was 59 µM. In addition, the EC50 in experiment [3] was found to be 230 µM.

As to `CCC(C)NC(=O)OC1CCCC(C)C1C` (stereo not drawn) [BIO1845, sec-Butyl-carbamic acid 2,3-dimethyl-cyclohexyl ester], the values for the IC50 in experiment [1] and in experiment [2] were 1440 µM and 96 µM, respectively. Also, the concentration giving a half-maximal response (EC50) in experiment [3] turned out to be 190 µM.
